The source of these data is ChEMBL document CHEMBL1201862, “PubChem BioAssay data set” (2004).

Among the test systems are CAKI-1; COLO 205; DU-145; HCT-15; HOP-62; HOP-92; K562; MDA-MB-435; NCI-H522; OVCAR-3; OVCAR-4; OVCAR-5; PC-3; SF-295; SK-MEL-2; SR; SW-620; T47D; TK-10; UACC-257.
Holding throughout (test): NCI tumour cell line growth inhibition, 48 h

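Protocol summary: plate cells (96-well), add compound at 5 concentrations, incubate 48 h, interpolate endpoints linearly. GI50 = concentration required for 50% inhibition of growth.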 Active and inactive are the calls of the source. No stated cut-off is given here; in the data, active = GI50 up to about 1.1 µM and inactive = higher.

As for `CC1CC[C@@]2(OC1)OC1C[C@H]3[C@@H]4CC=C5CC(OC6OC(CO)C(OC7OC(CO)C(O)C(OC8OCC(O)C(O)C8O)C7OC7OC(CO)C(OC8OC(C)C(OC9OC(C)C(O)C(O)C9O)C(O)C8O)C(O)C7O)C(O)C6O)CCC5(C)[C@H]4CCC3(C)C1[C@@H]2C` (stereo not given in full), the GI50 in the experiment with CAKI-1 was 7.55 µM (inactive); with COLO 205, 8.22 µM (inactive); with DU-145, 7.87 µM (inactive); in the experiment on HCT-15, 9.64 µM; in the experiment with HOP-62 it was 7.13 µM (inactive); in the experiment with HOP-92, 7.46 µM (inactive). Further, the GI50 with K562 was 8.05 µM (inactive); in the experiment with MDA-MB-435, 9.06 µM (inactive); in the experiment with NCI-H522, 8.87 µM (inactive); with OVCAR-3 it was 10.8 µM (inactive); with OVCAR-4 it was 4.21 µM (inactive); with OVCAR-5, 7.46 µM (inactive). Besides, the GI50 in the experiment with PC-3 is 5.32 µM (inactive); in the experiment on SF-295, 6.71 µM (inactive); in the experiment with SK-MEL-2, 6.71 µM (inactive); in the experiment with SR, 0.495 µM (active); in the experiment with SW-620 it was 11.4 µM (inactive); in the experiment on T47D it was 9.29 µM (inactive). In addition, the GI50 in the experiment on TK-10 is 8.59 µM (inactive); with UACC-257, 9.35 µM (inactive).

For `COC(=O)C1CC(C=[N+](C)C)=C(SC)N1` (stereo not given), the GI50 in the experiment with CAKI-1 was > 100 µM (inactive); in the experiment on COLO 205, > 100 µM (inactive); in the experiment on DU-145, > 100 µM (inactive); with HCT-15, more than 100 µM; with HOP-62 it was > 100 µM (inactive); in the experiment on HOP-92, > 100 µM (inactive). The GI50 in the experiment on K562, in the experiment with MDA-MB-435, in the experiment with NCI-H522, in the experiment with OVCAR-3, in the experiment on OVCAR-4 and with OVCAR-5 was > 100 µM (inactive) throughout. For the same compound, the GI50 in the experiment with PC-3, in the experiment on SF-295, in the experiment on SK-MEL-2, in the experiment on SR, in the experiment with SW-620 and in the experiment on T47D was > 100 µM (inactive) throughout. Also, the GI50 in the experiment on TK-10 and with UACC-257 was > 100 µM (inactive) each time.

Consider `C/C(=N/NC(=S)N1CCCCCC1)c1ccccc1O`, for which the GI50 in the experiment on CAKI-1 was 8.05 µM (inactive); in the experiment with COLO 205, 7.98 µM (inactive); with DU-145, 4.72 µM (inactive); with HCT-15, 1.26 µM; with HOP-62 it was 1.99 µM (inactive); with HOP-92 it was 50.2 µM (inactive). Also, the GI50 was 3.31 µM (inactive) in the experiment on K562; 5.82 µM (inactive) in the experiment with MDA-MB-435; 1.49 µM (inactive) in the experiment on NCI-H522; 1.38 µM (inactive) in the experiment on OVCAR-3; 6.98 µM (inactive) in the experiment on OVCAR-4; 12.7 µM (inactive) in the experiment with OVCAR-5. For the same compound, the GI50 in the experiment with PC-3 was 6.7 µM (inactive); in the experiment on SF-295, 4.8 µM (inactive); with SK-MEL-2, 3.29 µM (inactive); in the experiment on SR, 0.492 µM (active); in the experiment on SW-620, 4.97 µM (inactive); in the experiment on T47D it was 7.6 µM (inactive). Also, the GI50 was 3.58 µM (inactive) with TK-10 and 4.6 µM (inactive) in the experiment with UACC-257.

As for `N#Cc1c(C#N)c(-c2ccccc2)n(/N=C\c2ccccc2)c1N`, the GI50 in the experiment on CAKI-1 was 18.3 µM (inactive); with COLO 205 it was 22.5 µM (inactive); in the experiment on DU-145, 35.2 µM (inactive); in the experiment with HCT-15 it was 30.6 µM; in the experiment with HOP-62, 31.3 µM (inactive); in the experiment on HOP-92, 20.8 µM (inactive). Further, the GI50 in the experiment on K562 was 13.2 µM (inactive); in the experiment on MDA-MB-435 it was 45.4 µM (inactive); in the experiment with NCI-H522, 11.6 µM (inactive); with OVCAR-3, 12.9 µM (inactive); in the experiment on OVCAR-4, 12.9 µM (inactive); in the experiment with OVCAR-5 it was 29 µM (inactive). Moreover, the GI50 was 14.4 µM (inactive) with PC-3; 7.4 µM (inactive) with SF-295; 22.2 µM (inactive) with SK-MEL-2; 10.4 µM (inactive) in the experiment with SR; 62.4 µM (inactive) in the experiment on SW-620; 3.37 µM (inactive) in the experiment with T47D. Also, the GI50 in the experiment on TK-10 is 29.4 µM (inactive); with UACC-257, 17.3 µM (inactive).

With `C=C1C(=O)OC2CC1C(O)C/C(C)=C/CC/C(C)=C/C(O)CC2C` (stereo not given), the GI50 in the experiment on CAKI-1 was 2.75 µM (inactive); in the experiment on COLO 205, 1.49 µM (inactive); in the experiment with DU-145, 2.2 µM (inactive); in the experiment with HCT-15, 1.73 µM; with HOP-62, 11.4 µM (inactive); with HOP-92 it was 1.26 µM (inactive). Also, the GI50 is 1 µM (active) in the experiment with K562; 2.85 µM (inactive) in the experiment on MDA-MB-435; 0.216 µM (active) in the experiment on NCI-H522; 2.7 µM (inactive) in the experiment on OVCAR-3; 2.45 µM (inactive) in the experiment on OVCAR-4; 4.97 µM (inactive) in the experiment with OVCAR-5. Besides, the GI50 with PC-3 is 3.11 µM (inactive); in the experiment with SF-295, 13.3 µM (inactive); in the experiment on SK-MEL-2 it was 3.4 µM (inactive); with SR it was 0.52 µM (active); in the experiment with SW-620, 2 µM (inactive); in the experiment with T47D it was 0.824 µM (active). In addition, the results for the GI50 in the experiment with TK-10 and in the experiment on UACC-257 were 2.05 µM (inactive) and 2.4 µM (inactive), respectively.
